Activity calls are given as the source filed them. The rule behind the calls is not given here.

Results on six molecules are retold here after ChEMBL document CHEMBL3272110, “Synthesis and biological properties of 4-amino- and 4-bromo-4-norpyridoxol. New approaches for the modification of the 4 position of vitamin B6” (1976).

Test [1] deals with TA3. The experiment in a line: Growth inhibition of mouse TA3 cells at 10^-4 M. The test is classed as functional.
For test [2], the system named is TA3. The test is described as follows: Growth inhibition of mouse TA3 cells. The format is functional.

For `Cc1ncc(CBr)c(N)c1O`, in the test with TA3 [1] (read-out: GI), the inhibition of growth at 100 µM was found to be 30%.

Take `Br.Cc1ncc(CO)c(Br)c1O`: the ID50 in the test with TA3 [2] was found to be 1 ×10⁻⁵ M.

As to `Cc1ncc(CO)c(/C=N/O)c1O`, in the test with TA3 [2], the ID50 is listed as 8 ×10⁻⁵ M.

On to `Cc1ncc(CO)c(N)c1O`, for which the “growth inhibition (GI)” value with TA3 [1] is “inactive”.

For `Cc1ncc(CO)c(C(F)(F)F)c1O`, in the test with TA3 [2], the ID50 is given as 2 ×10⁻⁵ M.

Turning to `Cc1ncc(CO)c(O)c1O`, the “growth inhibition (GI)” value in the test on TA3 [1] was “inactive”.
